Experimental data published in patent US5166066A (priority 1991, dated 1992).

Experiments:
[1] = target: T1, GABAA receptor-Cl- channel complex composed of rat α1, β2, γ2 subunits (Rattus norvegicus, UniProt P18508+P62813+P63138); test: whole-cell patch clamp of GABA-mediated Cl- currents in transfected HEK 293 cells; format: cell-based; details: cell line 2C-1C, HEK 293, holding potential -60 mV
T1 construct: expressed in transfected cells
From the text: GABAA receptors are gated channels which, upon binding to BAGA, allow chlorine ions to pass into the cell. In the presence of benzodiazepines. The GABAA receptor will allow GABA to open the channel and let more chlorine ion into the cell if the benzodiazepine is an agonist or less chlorine ions into the cell if the benzodiazepine is an inverse agonist. The amount of chlorine ions that pass through the GABAA receptor can be directly measured using the patch clamp assay. This assay measures the charge flow into and out of an electrode sealed on the surface of a cell. The flow of chlorine ions entering the cell is measured as a function of the current that leaves the cell to maintain electrical equilibrium within the cell as the gate opens. […] The range of sensitivity of the whole cell patch clamp assay is about 1000 pA and allows for the distinguishing of currents of between 2 and 5 pA.
These tests were carried out by patch-clamp electrophysiology of whole cells. The whole-cell configuration of patch clamp technique was used to record the GABA-mediated Cl-currents in human embryonic kidney cells transfected with GABAA receptor subunits. Patch pipettes were made of borosilicate glass with a resistance of 0.5 to 2 megohms. The cell was bathed in the buffer medium containing (mM) NaCl 135, KCl 5, MgCl2 1, CaCl2 1.8 and Hepes 5, pH 7.2. […]

[2] = test system: recombinant receptors composed of α6 -, β2 - and β2-subunits; details: transiently expressed in cultured mammalian cells; cited from earlier work
[3] = test system: α1 - and β1 -subunits of the bovine brain GABAA receptor; details: CHO cells, dexamethasone-inducible promoter; cited from earlier work

T1 sequence (P62813 28-455): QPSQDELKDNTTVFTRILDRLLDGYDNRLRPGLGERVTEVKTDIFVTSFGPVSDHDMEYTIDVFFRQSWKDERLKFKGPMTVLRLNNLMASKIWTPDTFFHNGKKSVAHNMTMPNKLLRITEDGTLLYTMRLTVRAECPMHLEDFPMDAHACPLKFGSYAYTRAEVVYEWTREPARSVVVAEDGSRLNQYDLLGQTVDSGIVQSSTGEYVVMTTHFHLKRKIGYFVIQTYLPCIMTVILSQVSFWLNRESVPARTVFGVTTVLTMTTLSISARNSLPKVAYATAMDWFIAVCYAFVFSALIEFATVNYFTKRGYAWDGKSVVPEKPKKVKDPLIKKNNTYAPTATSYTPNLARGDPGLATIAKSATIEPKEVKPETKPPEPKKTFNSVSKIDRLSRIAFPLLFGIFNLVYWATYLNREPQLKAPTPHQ
T1 sequence (P63138 26-474): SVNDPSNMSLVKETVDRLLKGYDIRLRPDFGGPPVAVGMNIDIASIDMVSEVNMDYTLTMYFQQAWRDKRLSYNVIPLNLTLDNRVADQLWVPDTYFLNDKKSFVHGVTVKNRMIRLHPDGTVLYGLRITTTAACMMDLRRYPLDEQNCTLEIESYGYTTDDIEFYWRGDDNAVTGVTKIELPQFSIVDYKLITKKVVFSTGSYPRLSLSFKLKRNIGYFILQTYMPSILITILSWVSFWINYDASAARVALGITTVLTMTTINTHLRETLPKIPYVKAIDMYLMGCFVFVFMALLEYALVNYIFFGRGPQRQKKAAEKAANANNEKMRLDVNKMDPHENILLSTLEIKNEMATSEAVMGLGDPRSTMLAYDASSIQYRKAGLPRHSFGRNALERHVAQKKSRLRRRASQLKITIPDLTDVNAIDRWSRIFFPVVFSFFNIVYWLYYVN
T1 sequence (P18508 39-466): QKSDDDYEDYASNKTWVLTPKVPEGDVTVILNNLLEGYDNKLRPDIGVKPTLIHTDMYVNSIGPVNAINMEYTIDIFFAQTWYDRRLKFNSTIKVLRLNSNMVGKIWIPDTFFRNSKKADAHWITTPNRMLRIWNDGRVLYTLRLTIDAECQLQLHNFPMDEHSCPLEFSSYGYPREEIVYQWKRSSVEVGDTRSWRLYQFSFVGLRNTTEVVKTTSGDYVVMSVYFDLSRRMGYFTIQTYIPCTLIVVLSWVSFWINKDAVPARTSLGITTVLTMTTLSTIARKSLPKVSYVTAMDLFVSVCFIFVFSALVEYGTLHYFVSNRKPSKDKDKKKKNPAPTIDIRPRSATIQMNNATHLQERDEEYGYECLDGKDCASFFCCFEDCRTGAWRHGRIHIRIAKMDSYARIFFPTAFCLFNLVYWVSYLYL

| Compound | binding affinity to recombinant receptors [2] | effect on current response of α1β1 GABAA receptors [3] | other results |
| --- | --- | --- | --- |
| NCCCC(=O)O [GABA, γ-Aminobutyric acid] | – | – | response of cells to drug (Cl- current) [1]: responsive |
| CCOC(=O)c1ncn2c1CN(C)C(=O)c1cc(F)ccc1-2 [Ro15-1788] | high affinity | – | – |
| CCOC(=O)c1ncn2c1CN(C)C(=O)c1cc(N=[N+]=[N-])ccc1-2 [Ro15-4513] | high affinity | – | – |
| CN1CCc2cc3c(cc2[C@H]1[C@@H]1OC(=O)c2c1ccc1c2OCO1)OCO3 [bicuculline] | – | reversibly blocked | – |
| NCc1cc(=O)[nH]o1 [muscimol] | high affinity | – | – |
| picrotoxin | – | reversibly blocked | – |
